Source: US20090004194A1, “TLR AGONIST (FLAGELLIN)/CD40 AGONIST/ANTIGEN PROTEIN AND DNA CONJUGATES AND USE THEREOF FOR INDUCING SYNERGISTIC ENHANCEMENT IN IMMUNITY” (Regents of the University of Colorado, priority 2006, published 2009)
Entries after “also recorded” stand apart in the source; their conditions may differ.

Experiments:
[1] = tested on: antigen specific CD8+ T cells; test: Immunization of mice with ovalbumin plus TLR and CD40 agonists; antigen-specific CD8+ T cells by tetramer staining; type: in vivo
spleen cells = test: Type 1 IFN (IFNalphabeta) induction in spleen cells in vitro; type: cell-based
Source text: Two forms of the recombinant protein are made; the light chain, heavy chain and HIV Gag with and without flagellin. The TLR7/8 agonist is conjugated to each other resulting in the production of proteins which stimulate CD40/TLR7/8. A proprietary TLR7/8 agonist, called 3M012 (3M Pharmaceuticals Inc, St. Paul Minn.) contains a photoconjugatable linker, which when placed under UV light, conjugates rapidly to terminal amino groups (lysines, arginines, N terminus) in the protein of interest. Conjugation to the TLR7/8 agonist is performed as described previously (Wille-Reece et al., J. Immunol. 174:7676 (2005)). Briefly, recombinant protein is placed in deep well polypropylene 96 well plates (Costar) with 50-100 microliters of 10 mg/ml 3M012 and exposed to longwave UV light for 15 minutes. Following UV exposure, the recombinant protein-TLR7/8 conjugate is washed through a 30 kd cutoff centricon concentrator to remove any free 3M012 and […] molecular weight drug conjugates. The recombinant protein-TLR7/8 conjugates are washed in PBS pH 7.5-8 and analyzed as described above for anti-CD40 and TLR5 activity (for recombinant protein containing flagellin). The amount of 3M012 conjugated to the recombinant protein is determined in vitro by type 1 IFN (IFNalphabeta) induction in spleen cells as previously described (Wille-Reece et al. (Id)).

Substance | synergy with anti-CD40 for inducing CD8+ T cell expansion ([1]; whole ovalbumin + anti-CD40 + TLR agonist) | IFN alphabeta induction (spleen cells) | synergy with anti-CD40 for inducing CD8+ T cell expansion ([1]; mouse, in vivo)
flagellin | able to synergize with anti-CD40; also recorded: effectively synergizes with anti-CD40 | does not induce IFN alphabeta | 
poly IC |  |  | able to synergize with anti-CD40
